Reference: publication PMC6099553, “Novel Structural Insight into Inhibitors of Heme Oxygenase-1 (HO-1) by New Imidazole-Based Compounds: Biochemical and In Vitro Anticancer Activity Evaluation” (Molecules : A Journal of Synthetic Chemistry and Natural …, 2018)
One block for each molecule: values may come before it.

What was measured:
HO-2 [1] = test system: HO-2; set-up: method as in PMID 23097500; details: Figure 1; cited from earlier work
HO-1 [2] = molecular target: T1, HO-1 (Rattus norvegicus, UniProt P06762); assay: HO-1 inhibition, rat spleen microsomal fraction, bilirubin formation; type: biochemical; details: for IC50: rat spleen microsomes, mean ± SD, triplicate
T1 construct: selected in order to use the most native (i.e., closest to in vivo) forms of HO-1 and HO-2; from tissue; host or cells: spleen microsomal fraction of male Sprague-Dawley rats
T1 sequence (P06762 1-289): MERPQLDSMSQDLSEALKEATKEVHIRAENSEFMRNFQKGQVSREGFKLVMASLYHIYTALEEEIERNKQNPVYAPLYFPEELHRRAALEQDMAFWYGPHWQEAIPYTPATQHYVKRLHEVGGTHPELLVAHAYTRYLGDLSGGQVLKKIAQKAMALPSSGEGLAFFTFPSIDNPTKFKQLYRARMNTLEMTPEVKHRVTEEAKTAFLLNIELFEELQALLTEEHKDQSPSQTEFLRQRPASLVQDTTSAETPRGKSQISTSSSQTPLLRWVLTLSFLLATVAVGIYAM
Method: Inhibition activity assay for HO-1 was performed by extracting the enzyme from the rat spleen microsomal fraction. HO-1 activity was determined by measuring the formation of BR using the difference in absorbance at 464–530 nm, as described in the experimental section. Inhibition activity data are expressed as IC50 (μM) and obtained results are outlined in Table 2, utilizing Azalanstat as a reference compound.
HO-1 and HO-2 were obtained from rat spleen and brain, respectively, as the microsomal fraction prepared by differential centrifugation; the dominance of HO-1 protein in the rat spleen and of HO-2 in the rat brain has been well documented. These particular microsomal preparations were selected in order to use the most native (i.e., closest to in vivo) forms of HO-1 and HO-2. Spleen and brain (Sprague–Dawley rats) microsomal fractions were prepared according to the procedure outlined by Ryter et al.. The experiments reported in the present paper complied with current Italian law and met the guidelines of the Institutional Animal Care and Use Committee of University of Catania (Italy). The experiments were performed in male Sprague–Dawley albino rats (150 g body weight and age 45 d). They had free access to water and were kept at room temperature with a natural photo-period (12 h light-12 h dark cycle). For measuring HO-1 and HO-2 activities, each rat was sacrificed and their spleen and brain were excised and weighed. A homogenate (15%, w/v) of spleens and brains pooled from four rats was prepared in ice-cold HO-homogenizing buffer (50 mM Tris buffer, pH 7.4, containing 0.25 M sucrose) using a Potter–Elvehjem homogenizing system with a Teflon pestle. The microsomal fraction of rat spleen and brain homogenate was obtained by centrifugation at 10,000 rpm for 20 min at 4 °C, followed by centrifugation of the supernatant at 100,000 rpm for 60 min at 4 °C. The 100,000 rpm pellet (microsomes) was resuspended in 100 mM potassium phosphate buffer, pH 7.8, containing 2 mM MgCl2 with a Potter–Elvehjem homogenizing system. The rat spleen and brain microsomal fractions were divided into equal aliquots, placed into microcentrifuge tubes, and stored at −80 °C for up to 2 months. Protein concentration of the microsomal fraction was determined by Lowry method.
(§1) Liver cytosol has been used as a source of biliverdin reductase (BVR). […] The 100,000 rpm supernatant was saved and then stored in small amounts at −80 °C after its protein concentration was measured.
(§2) The HO-1 and HO-2 activities were determined by measuring the BR formation using the difference in absorbance at 464 to 530 nm as described by Ryter et al.. […] After recovering the chloroform phase, the amount of BR formed was measured with a double-beam spectrophotometer as OD464-530 nm (extinction coefficient, 40 mM/cm^−1 for BR). […]

HO-1 [3] = test system: HO-1; set-up: method as in PMID 23097500; details: Figure 1; cited from earlier work
HO-2 [4] = molecular target: T2, HO-2 (Rattus norvegicus, UniProt P23711); assay: HO-2 inhibition, rat brain microsomal fraction, bilirubin formation; type: biochemical; details: rat brain microsomes; mean ± SD, triplicate
T2 construct: selected in order to use the most native (i.e., closest to in vivo) forms of HO-1 and HO-2; from tissue; host or cells: brain microsomal fraction of male Sprague-Dawley rats
T2 sequence (P23711 1-315): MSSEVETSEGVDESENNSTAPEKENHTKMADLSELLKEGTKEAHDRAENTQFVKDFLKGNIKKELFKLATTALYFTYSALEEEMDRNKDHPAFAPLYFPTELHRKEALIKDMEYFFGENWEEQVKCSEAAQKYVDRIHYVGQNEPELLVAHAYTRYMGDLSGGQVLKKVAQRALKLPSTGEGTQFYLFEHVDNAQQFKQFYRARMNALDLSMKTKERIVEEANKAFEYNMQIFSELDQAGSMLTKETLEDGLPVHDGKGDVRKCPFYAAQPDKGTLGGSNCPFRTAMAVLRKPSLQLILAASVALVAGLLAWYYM
Method: HO-1 and HO-2 were obtained from rat spleen and brain, respectively, as the microsomal fraction prepared by differential centrifugation; the dominance of HO-1 protein in the rat spleen and of HO-2 in the rat brain has been well documented. These particular microsomal preparations were selected in order to use the most native (i.e., closest to in vivo) forms of HO-1 and HO-2. Spleen and brain (Sprague–Dawley rats) microsomal fractions were prepared according to the procedure outlined by Ryter et al.. The experiments reported in the present paper complied with current Italian law and met the guidelines of the Institutional Animal Care and Use Committee of University of Catania (Italy). The experiments were performed in male Sprague–Dawley albino rats (150 g body weight and age 45 d). […] Protein concentration of the microsomal fraction was determined by Lowry method.
as §1, §2

LnCap cells = assay: In vitro cytotoxicity, sulforhodamine B assay, LnCap; type: cell-based; details: Homo sapiens, hormone-sensitive prostate cancer cells, 72 h, SRB
Method: (§3) MDA-MB-231 cells (hormone resistant), MCF-7 (hormone sensitive), PC3 cells (hormone resistant), DU145 cells (hormone resistant), LnCap cells (hormone sensitive), B16, and HEK cells were maintained in complete growth media (DMEM/Ham’s F12 supplemented with 10% fetal bovine serum, […], 100 units/mL penicillin, 100 units/mL of streptomycin, and 2.2 g/L of NaHCO3) at 37 °C in a humidified atmosphere of 5% CO2. For all procedures, cells were harvested using TrypLE Express (Life Technologies, Auckland, New Zealand).
(§4) To test the cytotoxic effect of HO inhibitors, cells (8 × 10^3 cells/well) were seeded into 96-well plates and incubated for 24 h. This was followed by treatment with HO inhibitors at the concentrations 1.1–200 μM (1.1–1000 μM for HEK cells) of compound 1. In addition, the cytotoxicity of doxorubicin (5 μM, 10 μM, and 30 μM) and a combination of doxorubicin 5 μM and 37 μM 1 was assessed using B16 cells. In all experiments, the cells were incubated for 72 h. Following the incubation, cells were fixed using 10% trichloroacetic acid (TCA). Cytotoxicity was determined using the sulforhodamine B assay as previously described. […] Treatments were performed in triplicate and data represents mean of three independent experiments.

PC3 cells = assay: In vitro cytotoxicity, sulforhodamine B assay, PC3; type: cell-based; details: Homo sapiens, PC-3; hormone-resistant prostate cancer cells, 72 h, SRB
Method: as §3, §4

DU145 cells = assay: In vitro cytotoxicity, sulforhodamine B assay, DU145; type: cell-based; details: Homo sapiens, DU-145; hormone-resistant prostate cancer cells, 72 h, SRB
Method: as §3, §4

B16 cells = assay: In vitro cytotoxicity, sulforhodamine B assay, B16 (alone and with doxorubicin); type: cell-based, murine; details: for IC50: murine melanoma cells, 72 h, SRB
Method: as §3
as §4, with “In addition, the cytotoxicity of doxorubicin (5 μM, 10 μM, and 30 μM) and a combination of doxorubicin 5 μM and 37 μM 1 was assessed using B16 cells.” left out
Figure 3 Cytotoxicity of compound 1 against MCF-7 and B16 cells. (A) MCF-7 (hormone-sensitive breast cancer cells) and (B) B16 (melanoma) cells were treated with 1.1–200 μM of compound 1 for 72 h. Control wells were treated with vehicle only (0.2% DMSO). At the end of treatment, cell number was determined using the sulforhodamine B assay. Data are expressed as mean ± SEM (n = 3). Non-linear regression and IC50 values determination were performed using GraphPad Prism 6.
Figure 4 Cytotoxicity of compound 1 in combination with different concentration of doxorubicin (doxo) against B16 cells. Data are expressed as mean ± SEM (n = 3). *** Significant vs. untreated control cells: p < 0.001.

MDA-MB-231 cells = assay: In vitro cytotoxicity, sulforhodamine B assay, MDA-MB-231; type: cell-based; details: Homo sapiens, hormone-resistant breast cancer cells, 72 h, SRB
Method: as §3, §4

MCF-7 cells = assay: In vitro cytotoxicity, sulforhodamine B assay, MCF-7; type: cell-based; details: Homo sapiens, MCF7; hormone-sensitive breast cancer cells, 72 h, SRB
Method: as §3
To test the cytotoxic effect of HO inhibitors, cells (8 × 10^3 cells/well) were seeded into 96-well plates and incubated for 24 h. This was followed by treatment with HO inhibitors at the concentrations 1.1–200 μM (1.1–1000 μM for HEK cells) of compound 1. In addition, the cytotoxicity of doxorubicin (5 μM, 10 μM, and 30 μM) and a combination of doxorubicin 5 μM and 37 μM 1 was assessed using B16 cells. In all experiments, the cells were incubated for 72 h. Following the incubation, cells were fixed using 10% trichloroacetic acid (TCA). Cytotoxicity was determined using the sulforhodamine B assay as previously described. […]
Figure 3 Cytotoxicity of compound 1 against MCF-7 and B16 cells. […] At the end of treatment, cell number was determined using the sulforhodamine B assay. Data are expressed as mean ± SEM (n = 3). […]

HEK cells = assay: In vitro cytotoxicity, sulforhodamine B assay, HEK (healthy cells); type: cell-based, human
Method: as §3, §4

IC50 (HO-1 [2]): 67.6 ± 2.1 µM | melting point: 182 to 183 °C
SMILES: OC(Cn1ccnc1)C12CC3CC(CC(C3)C1)C2 (stereo not drawn) [Compound 4, 2-(1H-Imidazol-1-yl)-1-tricyclo[3.3.1.13,7]dec-1-yl-ethanol]

SMILES: Clc1ccc(CCC2(Cn3ccnc3)OCCO2)cc1 [QC-15]
IC50 (HO-2 [1]): > 100 µM | IC50 (HO-1 [3]): 2800 nM

IC50 (HO-1 [2]): 80 ± 3.3 µM | fold less potent towards HO-1 than parent compound 1 (HO-1 [2]; ratio of HO-1 IC50 values): around 200 fold
SMILES: Brc1cccc(C(Cn2ccnc2)OCc2ccccc2)c1 (stereo not drawn) [Compound 2, 1-[2-(3-Bromophenyl)-2-(phenylmethoxy)ethyl]-1H-imidazole]

SMILES: FC(F)(F)c1ccc(SC[C@@H]2CO[C@@](CCc3ccc(Cl)cc3)(Cn3ccnc3)O2)nc1 [QC-80]
IC50 (HO-2 [1]): 16 µM | IC50 (HO-1 [3]): 2100 nM

SMILES: Nc1ccc(SC[C@@H]2CO[C@](CCc3ccc(Cl)cc3)(Cn3ccnc3)O2)cc1 [Azalanstat]
IC50 (HO-2 [1]): 24.4 µM | IC50 (HO-1 [3]): 5300 nM

IC50 (HO-1 [2]): 28.8 ± 1.4 µM | IC50 (HO-2 [4]): 14.4 ± 0.9 µM | melting point: 196 to 197 °C
SMILES: O=C(Cn1ccnc1)NC(c1ccccc1)c1ccccc1 [Compound 3, N-Benzhydryl-2-(1H-imidazol-1-yl)acetamide]

SMILES: O=C(CCc1ccccc1)Cn1cncn1 [QC-86]
IC50 (HO-2 [1]): 18 µM

SMILES: OC(Cn1ccnc1)c1cccc(Br)c1 (stereo not drawn) [Compound 1]
IC50 (LnCap cells): 158 ± 2.3 µM | IC50 (PC3 cells): 165 ± 2.8 µM | IC50 (DU145 cells): 138 ± 2.7 µM | IC50 (B16 cells; Mus musculus, B16, 72 h): 42 µM | Cytotoxic effect in combination with doxorubicin (B16 cells; compound 1 (10 μM) with doxorubicin (5 μM), B16 cells): synergistic cytotoxic effect | IC50 (B16 cells): 37 ± 7.25 µM | IC50 (MDA-MB-231 cells): 82.6 ± 0.57 µM | IC50 (MCF-7 cells): 52.6 ± 3.76 µM | IC50 (HEK cells; HEK293, non-cancerous human embryonic kidney cells, 72 h, SRB): 364 ± 21.3 µM | Selectivity for cancer cells with respect to healthy cells (HEK cells; cancer cell lines vs HEK): 2–10 fold

SMILES: O=C(Cn1ccnc1)C12CC3CC(CC(C3)C1)C2 [QC-82]
IC50 (HO-2 [1]): > 100 µM | IC50 (HO-1 [3]): 3000 nM
